This note sets out measurements from article PMC8780828 (Viruses, 2021).

The term IC50 denotes the concentration that inhibits the measured activity by half.

Bounds are passed on as bounds.

The subject of experiment [1] is NL4-3∆Env-NanoLuc/SARS-CoV-2 mutant pseudovirus N501Y. Type of experiment: cell-based.
Experiment [2] relates to NL4-3∆Env-NanoLuc/SARS-CoV-2 mutant pseudovirus E484K/N501Y. The class given is cell-based.
Experiment [3] relates to NL4-3∆Env-NanoLuc/SARS-CoV-2 mutant pseudovirus E484K. The class given is cell-based.
Experiment [4] has as its system NL4-3∆Env-NanoLuc/SARS-CoV-2 mutant pseudovirus ∆69–70. The class given is cell-based.
In experiment [5] the test system is NL4-3∆Env-NanoLuc/SARS-CoV-2 mutant pseudovirus D614G. The class given is cell-based.
Experiment [6] concerns NL4-3∆Env-NanoLuc/SARS-CoV-2 mutant pseudovirus E484K/N501Y/D614G. Type of experiment: cell-based.
In experiment [7] the test system is NL4-3∆Env-NanoLuc/SARS-CoV-2 mutant pseudovirus N501Y/∆69–70/P681H. The class given is cell-based.
In experiment [8] the test system is NL4-3∆Env-NanoLuc/SARS-CoV-2 mutant pseudovirus N501Y/D614G. The class given is cell-based.
In experiment [9] the test system is NL4-3∆Env-NanoLuc/SARS-CoV-2 mutant pseudovirus D614G/P681R/D950N. The class given is cell-based.
Experiment [10] has as its target SARS-CoV-2 spike (active trimer) His-tag (Severe acute respiratory syndrome coronavirus 2, UniProt P0DTC2, K986P/R682S/R685S/V987P). The class given is binding.
Experiment [11] relates to NL4-3∆Env-NanoLuc/SARS-CoV-2 mutant pseudovirus D614G/D950N. The class given is cell-based.
Experiment [12] relates to NL4-3∆Env-NanoLuc/SARS-CoV-2 mutant pseudovirus D614G/P681R. The class given is cell-based.
Experiment [13] relates to NL4-3∆Env-NanoLuc/SARS-CoV-2 mutant pseudovirus N501Y/∆69–70. The class given is cell-based.
The subject of experiment [14] is NL4-3∆Env-NanoLuc/SARS-CoV-2 mutant pseudovirus P681H. The class given is cell-based.
Experiment [15] has as its system NL4-3∆Env-NanoLuc/SARS-CoV-2 mutant pseudovirus D950N. Type of experiment: cell-based.
The test system of experiment [16] is NL4-3∆Env-NanoLuc/SARS-CoV-2 mutant pseudovirus E484K/D614G. Type of experiment: cell-based.

`O=C(O)c1cc(-c2ccc(/C=C3\SC(=S)N(CCc4ccccc4)C3=O)o2)ccc1Cl` [NBCoV1]: the IC50 in [1] is 52.5 ± 0.2 nM; in experiment [2] it was 32 ± 0.5 nM; in [3], 42 ± 0.7 nM; in [4], 48 ± 3 nM; in experiment [5], 56 ± 0.6 nM; in [6], 45 ± 2 nM. Besides, the half-inhibitory concentration (IC50) came to 57 ± 0.5 nM in experiment [7]; 57 ± 2 nM in experiment [8]; 58 ± 7 nM in experiment [9]; 33 ± 10 nM in experiment [11]; 49 ± 13 nM in experiment [12]; 46 ± 0.5 nM in experiment [13]. The half-inhibitory concentration (IC50) in [14] was found to be 35 ± 0.5 nM; in experiment [15] it was 47.7 ± 15 nM; in experiment [16], 33 ± 0.5 nM. The ka in [10] is 1040 M⁻¹ s⁻¹. The compound also had a kd in experiment [10] of 0.00162 s⁻¹.

With `O=C(O)c1cccc(-c2ccc(/C=C3\SC(=S)N(CCc4ccccc4)C3=O)o2)c1` [NBCoV2], the 50% inhibitory concentration (IC50) in experiment [1] amounted to 49 ± 0.5 nM; in experiment [2] it was 36 ± 0.4 nM; in experiment [3] it was 45 ± 0.2 nM; in [4], 55 ± 0.5 nM; in experiment [5], 61 ± 0.3 nM; in experiment [6] it was 43 ± 0.5 nM. Further, the concentration for half-maximal inhibition (IC50) was 79 ± 14 nM in [7]; 59 ± 13 nM in [8]; 53 ± 12 nM in experiment [9]; 26 ± 2 nM in [11]; 65 ± 18 nM in experiment [12]; 66 ± 1 nM in experiment [13]. Further, the IC50 in experiment [14] came to 51 ± 0.3 nM; in [15] it was 88.7 ± 6 nM; in experiment [16], 35 ± 0.2 nM. Also, the ka in experiment [10] was 872 M⁻¹ s⁻¹. Also, the kd in experiment [10] is 0.00468 s⁻¹.

In the case of `O=C(O)c1cc(-c2ccc(/C=C3\SC(=S)N(CCc4ccccc4)C3=O)o2)ccc1F` [NBCoV3], the half-maximal inhibitory concentration (IC50) amounted to 44.5 ± 0.5 nM in [1]; 42 ± 1 nM in [2]; 80 ± 10.6 nM in [3]; 69 ± 7 nM in experiment [4]; 145 ± 28 nM in experiment [5]; 101 ± 2 nM in [6]. Also, the IC50 in [7] worked out at 232 ± 17 nM; in [8] it was 104 ± 1 nM; in [13] it was 94 ± 16 nM; in experiment [14], 55 ± 0.3 nM; in [16], 44 ± 0.8 nM.

With `Cc1ccc(-c2ccc(/C=C3\SC(=S)N(CCc4ccccc4)C3=O)o2)cc1C(=O)O` [NBCoV4], the IC50 in [1] was determined as 51 ± 0.4 nM; in experiment [2], 51 ± 5 nM; in experiment [3], 45 ± 0.4 nM; in experiment [4], 53 ± 0.5 nM; in experiment [5], 58 ± 0.4 nM; in experiment [6], 43 ± 2.5 nM. In addition, the concentration for half-maximal inhibition (IC50) was 158 ± 31 nM in [7]; 77 ± 29 nM in experiment [8]; 239 ± 7 nM in experiment [9]; 77.5 ± 16.5 nM in [11]; 148 ± 30 nM in experiment [12]; 53 ± 11 nM in [13]. Further, the IC50 in experiment [14] came out at 44 ± 0.4 nM; in experiment [15], 207 ± 29 nM; in experiment [16], 44 ± 3 nM.

Regarding `Cc1c(C(=O)O)cccc1-c1ccc(/C=C2\SC(=S)N(CCc3ccccc3)C2=O)o1` [NBCoV5], the IC50 in [1] is more than 2000 nM; in experiment [2], more than 2000 nM; in experiment [3], more than 2000 nM; in experiment [4], more than 2000 nM; in experiment [5], 1730 ± 62.5 nM; in [6], more than 2000 nM. Besides, the half-maximal inhibitory concentration (IC50) in experiment [7], in experiment [8], in experiment [9], in experiment [11], in experiment [12] and in [13] was more than 2000 nM throughout. The half-maximal inhibitory concentration (IC50) in experiment [14] is 1720 ± 215 nM; in experiment [15], more than 2000 nM; in [16] it was 1850 ± 124 nM.
